Source: patent publication US4336389A, “2-Substituted-4-aryl-5-thiazolecarboxylic acids and their derivatives as safening agents” (Monsanto Company, priority 1978, dated 1982)

Legend:
Type in all cases: in vivo
rice [1] = assay: Percent inhibition of rice, mixture incorporated in soil cover layer (Example 19, Table V); conditions: ~21 days
Source text: (§1) 5.08 cm. of a good grade of top soil is placed in a 7.62 cm. deep plastic pot. A predetermined number of weed seeds and rice seeds are applied to the soil surface. Butachlor and ethyl 2-chloro-4-phenyl-5-thiazolecarboxylate are applied to a soil cover layer as a mixture and incorporated by shaking the treated soil cover layer in a plastic bag. The cover layers were then placed on the pre-seeded pots. The plants are observed at the end of approximately 21 days and the results in terms of percent inhibition recorded. For each test, pots are prepared containing soil treated only with butachlor. For each test, pots are prepared containing soil treated only with the safening agent. Pots are also prepared with untreated soil.

rice [2] = assay: Inhibition of rice, safening agent and butachlor applied to soil surface, flooded pots (Example 18, Table IV); conditions: ~21 days, mean of two replicates
Procedure: (§2) 5.08 cm. of a good grade of top soil is placed in a 7.62 cm. deep plastic pot. A predetermined number of barnyard grass seeds are applied to the soil surface. A measured quantity of the safening agent and butachlor dispersed or dissolved in a suitable carrier is applied to the soil surface. Pre-soaked rice is seeded into the pots that were previously flooded with water. The water level is lowered below the soil surface for one week. The pots are flooded just above the soil surface for the duration of the test. The plants are observed at the end of approximately 21 days and the results in terms of percent inhibition recorded. For each test, pots are prepared containing soil treated only with butachlor. For each test, pots are prepared containing soil treated only with the safening agent. Pots are also prepared with untreated soil.

rice [3] = assay: Inhibition of rice by butachlor and safening agent sprayed on soil surface, flooded pots (Example 17, Table III); conditions: ~21 days, mean of two replicates
Procedure: as §2, with “agent” for “agent and butachlor”, “is sprayed on the soil surface. A measured quantity of butachlor herbicide dissolved in a solvent is sprayed on” for “is applied to”, “one week to allow barnyard grass to emerge.” for “one week.”, “prepared containing” for “prepared with”

Panicum = assay: Percent inhibition of panicum, mixture incorporated in soil cover layer (Example 19, Table V); conditions: ~21 days
Source text: as §1

Foxtail = assay: Percent inhibition of foxtail, mixture incorporated in soil cover layer (Example 19, Table V); conditions: ~21 days
Source text: as §1

Barnyard Grass [4] = assay: Inhibition of barnyard grass by butachlor and safening agent sprayed on soil surface, flooded pots (Example 17, Table III); conditions: ~21 days, mean of two replicates
Procedure: as §2, with “agent” for “agent and butachlor”, “is sprayed on the soil surface. A measured quantity of butachlor herbicide dissolved in a solvent is sprayed on” for “is applied to”, “one week to allow barnyard grass to emerge.” for “one week.”, “prepared containing” for “prepared with”

Barnyard Grass [5] = assay: Inhibition of barnyard grass, safening agent and butachlor applied to soil surface, flooded pots (Example 18, Table IV); conditions: ~21 days, mean of two replicates
Procedure: as §2

Barnyard Grass [6] = assay: Percent inhibition of barnyard grass, mixture incorporated in soil cover layer (Example 19, Table V); conditions: ~21 days
Source text: as §1

Crabgrass = assay: Percent inhibition of crabgrass, mixture incorporated in soil cover layer (Example 19, Table V); conditions: ~21 days
Source text: as §1

rice [7] = assay: Safening effect against butachlor injury to rice, safening agent and herbicide incorporated in soil (Example 15, Table I); set-up: key: herbicide-alone + safener-alone effect (max 100) minus combined effect; conditions: safening agent 8.96 kg/h, ~21 days
Procedure: (§3) A good grade of top soil is placed in a container and compacted to a depth of approximately 1.27 cm. from the top of said container. A predetermined number of rice seeds to be tested are placed on top of the soil. A quantity of soil sufficient to substantially fill the container is measured and placed in a second container. A measured quantity of the safening agent dispersed or dissolved in a suitable carrier is applied to the soil in the second container. A measured quantity of butachlor dispersed or dissolved in a suitable carrier is then sprayed on the soil already treated with the safening agent. The soil containing the safening agent and herbicide is thoroughly mixed. This mixing is sometimes referred to as incorporation of the herbicide and safening agent into the soil. The mixing or incorporation provides a substantially uniform distribution of the safening agent and herbicide throughout the soil. The seeds are covered with the soil containing the safening agent and herbicide and the pans are leveled. The pans are then placed on a sand bench in the greenhouse and watered from below as needed. The plants are observed at the end of approximately 21 days and the results in terms of percent inhibition of each seed lot are recorded. For each test series a pan of plants is also prepared containing no herbicide and no safening agent as a control. Additionally, for each test, a pan of plants is prepared with soil covering the seed containing no herbicide and only the measured amount of safening agent being incorporated into the soil covering the seeds to ascertain any herbicidal effect of the safening agent alone. For each series of tests the herbicidal effect of the herbicide is observed from pans of plants treated with the same quantity of herbicide alone. The "safening effect" is determined by adding the hericidal effect of the herbicide when applied alone to the herbicidal effect of the safening agent when applied alone (in no instance, however, will this sum be greater than 100) and substracting from that the herbicidal effect obtained when the herbicide and safening agent are incorporated into the soil as discussed above.
Table I summarizes the results obtained when the compounds of the invention were tested in accordance with the procedure of Example 15.

rice [8] = assay: Safening effect against butachlor injury to pre-soaked rice, soil surface application, flooded pots (Example 16, Table II); set-up: key: herbicide injury alone + safener injury alone (max 100) minus combined injury; conditions: ~21 days, mean of two replicates
Procedure: as §3
A good grade of top soil is placed in a plastic pot. A measured quantity of the safening agent dispersed or dissolved in a suitable carrier is sprayed on the soil surface. A measured quantity of butachlor herbicide dissolved in a solvent is sprayed on the soil surface. Presoaked rice is seeded into the pots that were previously flooded with water and the water level lowered below the soil surface for one week. The pots are flooded at least up to the soil surface for the duration of the test. The plants are observed at the end of approximately 21 days and the results in terms of the percent inhibition of rice is recorded. As in Example 15, for each test pots are prepared containing soil treated only with butachlor. For each test, pots are also prepared containing soil treated only with the safening agent. Pots are also prepared in which the soil is not treated with either the herbicide or the safening agent. The safening effect is determined in accordance with Example 15.
Table II summarizes the results obtained when the compounds of the invention were tested in accordance with the procedure of Example 16.

[9] = safening agent 0.07 kg/h + butachlor 0.07 kg/h
[10] = safening agent 0.07 kg/h + butachlor 0.28 kg/h
[11] = safening agent 0.07 kg/h + butachlor 1.12 kg/h
[12] = safening agent 0.28 kg/h + butachlor 0.07 kg/h
[13] = safening agent 0.28 kg/h + butachlor 0.28 kg/h
[14] = safening agent 0.28 kg/h + butachlor 1.12 kg/h
[15] = safening agent 1.12 kg/h + butachlor 0.07 kg/h
[16] = safening agent 1.12 kg/h + butachlor 0.28 kg/h
[17] = safening agent 1.12 kg/h + butachlor 1.12 kg/h
[18] = safening agent 8.96 kg/h + butachlor 2.24 kg/h
[19] = safening agent 8.96 kg/h + butachlor 4.48 kg/h
[20] = safening agent 8.96 kg/h + butachlor 8.96 kg/h

## CCCCOCN(C(=O)CCl)c1c(CC)cccc1CC [butachlor, 2-chloro-2',6'-diethyl-N-(butoxymethyl)acetanilide, reference compound]
Rice [1]; butachlor alone 2.24 kg/h
  Percent Inhibition, Rice: 50%
Rice [1]; butachlor alone 4.48 kg/h
  Percent Inhibition, Rice: 78%
Rice [1]; butachlor alone 8.96 kg/h
  Percent Inhibition, Rice: 93%
Rice [2]; butachlor alone 0.07 kg/h
  % Inhibition, Rice: 64%
Rice [2]; butachlor alone 0.28 kg/h
  % Inhibition, Rice: 78%
Rice [2]; butachlor alone 1.12 kg/h
  % Inhibition, Rice: 100%
Rice [3]; butachlor alone 0.07 kg/h
  Inhibition, Rice: 31%
Rice [3]; butachlor alone 0.28 kg/h
  Inhibition, Rice: 74%
Rice [3]; butachlor alone 1.12 kg/h
  Inhibition, Rice: 98%
Panicum; butachlor alone 2.24 kg/h
  Percent Inhibition, Panicum: 99%
Panicum; butachlor alone 4.48 kg/h
  Percent Inhibition, Panicum: 100%
Panicum; butachlor alone 8.96 kg/h
  Percent Inhibition, Panicum: 100%
Foxtail; butachlor alone 2.24 kg/h
  Percent Inhibition, Foxtail: 100%
Foxtail; butachlor alone 4.48 kg/h
  Percent Inhibition, Foxtail: 100%
Foxtail; butachlor alone 8.96 kg/h
  Percent Inhibition, Foxtail: 100%
Barnyard Grass [4]; butachlor alone 0.07 kg/h
  Inhibition, Barnyard Grass: 99%
Barnyard Grass [4]; butachlor alone 0.28 kg/h
  Inhibition, Barnyard Grass: 100%
Barnyard Grass [4]; butachlor alone 1.12 kg/h
  Inhibition, Barnyard Grass: 100%
Barnyard Grass [5]; butachlor alone 0.07 kg/h
  % Inhibition, Barnyard Grass: 100%
Barnyard Grass [5]; butachlor alone 0.28 kg/h
  % Inhibition, Barnyard Grass: 100%
Barnyard Grass [5]; butachlor alone 1.12 kg/h
  % Inhibition, Barnyard Grass: 100%
Barnyard Grass [6]; butachlor alone 2.24 kg/h
  Percent Inhibition, Barnyard Grass: 100%
Barnyard Grass [6]; butachlor alone 4.48 kg/h
  Percent Inhibition, Barnyard Grass: 100%
Barnyard Grass [6]; butachlor alone 8.96 kg/h
  Percent Inhibition, Barnyard Grass: 100%
Crabgrass; butachlor alone 2.24 kg/h
  Percent Inhibition, Crabgrass: 100%
Crabgrass; butachlor alone 4.48 kg/h
  Percent Inhibition, Crabgrass: 100%
Crabgrass; butachlor alone 8.96 kg/h
  Percent Inhibition, Crabgrass: 100%

## CCOC(=O)c1sc(Cl)nc1-c1ccc(Cl)cc1 [Example 4, Ethyl 2-Chloro-4-p-Chlorophenyl-5-Thiazolecarboxylate]
Rice [2]; [9]
  % Inhibition, Rice: 5%
Rice [2]; [10]
  % Inhibition, Rice: 63%
Rice [2]; [11]
  % Inhibition, Rice: 88%
Rice [2]; [12]
  % Inhibition, Rice: 0%
Rice [2]; [13]
  % Inhibition, Rice: 30%
Rice [2]; [14]
  % Inhibition, Rice: 40%
Rice [2]; [15]
  % Inhibition, Rice: 0%
Rice [2]; [16]
  % Inhibition, Rice: 30%
Rice [2]; [17]
  % Inhibition, Rice: 88%
Rice [2]; safening agent alone 0.07 kg/h
  % Inhibition, Rice: 0%
Rice [2]; safening agent alone 0.28 kg/h
  % Inhibition, Rice: 0%
Rice [2]; safening agent alone 1.12 kg/h
  % Inhibition, Rice: 0%
Rice [3]; [9]
  Inhibition, Rice: 0%
Rice [3]; [10]
  Inhibition, Rice: 0%
Rice [3]; [11]
  Inhibition, Rice: 78%
Rice [3]; [12]
  Inhibition, Rice: 0%
Rice [3]; [13]
  Inhibition, Rice: 0%
Rice [3]; [14]
  Inhibition, Rice: 40%
Rice [3]; [15]
  Inhibition, Rice: 0%
Rice [3]; [16]
  Inhibition, Rice: 0%
Rice [3]; [17]
  Inhibition, Rice: 28%
Rice [3]; safening agent alone 0.07 kg/h
  Inhibition, Rice: 0%
Rice [3]; safening agent alone 0.28 kg/h
  Inhibition, Rice: 0%
Rice [3]; safening agent alone 1.12 kg/h
  Inhibition, Rice: 0%
Barnyard Grass [4]; [9]
  Inhibition, Barnyard Grass: 99%
Barnyard Grass [4]; [10]
  Inhibition, Barnyard Grass: 100%
Barnyard Grass [4]; [11]
  Inhibition, Barnyard Grass: 100%
Barnyard Grass [4]; [12]
  Inhibition, Barnyard Grass: 99%
Barnyard Grass [4]; [13]
  Inhibition, Barnyard Grass: 99%
Barnyard Grass [4]; [14]
  Inhibition, Barnyard Grass: 100%
Barnyard Grass [4]; [15]
  Inhibition, Barnyard Grass: 99%
Barnyard Grass [4]; [16]
  Inhibition, Barnyard Grass: 99%
Barnyard Grass [4]; [17]
  Inhibition, Barnyard Grass: 100%
Barnyard Grass [4]; safening agent alone 0.07 kg/h
  Inhibition, Barnyard Grass: 0%
Barnyard Grass [4]; safening agent alone 0.28 kg/h
  Inhibition, Barnyard Grass: 0%
Barnyard Grass [4]; safening agent alone 1.12 kg/h
  Inhibition, Barnyard Grass: 0%
Barnyard Grass [5]; [9]
  % Inhibition, Barnyard Grass: 90%
Barnyard Grass [5]; [10]
  % Inhibition, Barnyard Grass: 100%
Barnyard Grass [5]; [11]
  % Inhibition, Barnyard Grass: 100%
Barnyard Grass [5]; [12]
  % Inhibition, Barnyard Grass: 85%
Barnyard Grass [5]; [13]
  % Inhibition, Barnyard Grass: 100%
Barnyard Grass [5]; [14]
  % Inhibition, Barnyard Grass: 100%
Barnyard Grass [5]; [15]
  % Inhibition, Barnyard Grass: 85%
Barnyard Grass [5]; [16]
  % Inhibition, Barnyard Grass: 100%
Barnyard Grass [5]; [17]
  % Inhibition, Barnyard Grass: 100%
Barnyard Grass [5]; safening agent alone 0.07 kg/h
  % Inhibition, Barnyard Grass: 0%
Barnyard Grass [5]; safening agent alone 0.28 kg/h
  % Inhibition, Barnyard Grass: 0%
Barnyard Grass [5]; safening agent alone 1.12 kg/h
  % Inhibition, Barnyard Grass: 0%
Rice [7]; butachlor 6.72 kg/h
  Safening Effect: 85
Rice [8]; safening agent 0.56 kg/h, butachlor 0.07 kg/h
  Safening Effect: 30
Rice [8]; safening agent 0.56 kg/h, butachlor 0.28 kg/h
  Safening Effect: 70
Rice [8]; safening agent 0.56 kg/h, butachlor 1.12 kg/h
  Safening Effect: 32

## CCOC(=O)c1sc(Cl)nc1-c1ccccc1 [Example 1, Ethyl 2-Chloro-4-Phenyl-5-Thiazolecarboxylate]
Rice [1]; [18]
  Percent Inhibition, Rice: 8%
Rice [1]; [19]
  Percent Inhibition, Rice: 43%
Rice [1]; [20]
  Percent Inhibition, Rice: 45%
Rice [1]; safening agent alone 8.96 kg/h
  Percent Inhibition, Rice: 0%
Panicum; [18]
  Percent Inhibition, Panicum: 100%
Panicum; [19]
  Percent Inhibition, Panicum: 100%
Panicum; [20]
  Percent Inhibition, Panicum: 100%
Panicum; safening agent alone 8.96 kg/h
  Percent Inhibition, Panicum: 0%
Foxtail; [18]
  Percent Inhibition, Foxtail: 100%
Foxtail; [19]
  Percent Inhibition, Foxtail: 100%
Foxtail; [20]
  Percent Inhibition, Foxtail: 100%
Foxtail; safening agent alone 8.96 kg/h
  Percent Inhibition, Foxtail: 0%
Rice [7]; butachlor 4.48 kg/h
  Safening Effect: 75
Barnyard Grass [6]; [18]
  Percent Inhibition, Barnyard Grass: 100%
Barnyard Grass [6]; [19]
  Percent Inhibition, Barnyard Grass: 100%
Barnyard Grass [6]; [20]
  Percent Inhibition, Barnyard Grass: 100%
Barnyard Grass [6]; safening agent alone 8.96 kg/h
  Percent Inhibition, Barnyard Grass: 0%
Crabgrass; [18]
  Percent Inhibition, Crabgrass: 100%
Crabgrass; [19]
  Percent Inhibition, Crabgrass: 100%
Crabgrass; [20]
  Percent Inhibition, Crabgrass: 100%
Crabgrass; safening agent alone 8.96 kg/h
  Percent Inhibition, Crabgrass: 0%
Rice [8]; safening agent 1.12 kg/h, butachlor 0.14 kg/h
  Safening Effect: 78
Rice [8]; safening agent 1.12 kg/h, butachlor 0.56 kg/h
  Safening Effect: 99
